ChEMBL document CHEMBL1154313, “Synthesis, antiproliferative, and pharmacokinetic properties of 3- and 17-double-modified analogs of 2-methoxyestradiol” (Bioorg Med Chem Lett, 2009)
Calls of active or inactive are those of the source. The calls are words filed in the database; no cut-off is given here.

Assays:
[1] = tested on: MDA-MB-231; test: Antiproliferative activity against human MDA-MB-231 cells after 48 hrs by WST1 assay; assay type: functional, cell-based; conditions: MDA-MB-231, 48 h
[2] = tested on: HUVEC; test: Antiangiogenic activity against HUVEC assessed as growth inhibition after 48 hrs by WST1 assay; assay type: functional, cell-based; conditions: Homo sapiens
[3] = tested on: MDA-MB-231; test: Ratio of 2ME2 IC50 to compound IC50 for human MDA-MB-231 cells; assay type: functional
[4] = tested on: HUVEC; test: Ratio of 2ME2 IC50 to compound IC50 for antiangiogenic activity against HUVEC; assay type: functional, Homo sapiens
[5] = tested on: MCF7; test: Antiproliferative activity against human MCF7 cells after 48 hrs by WST1 assay; assay type: functional, cell-based
[6] = Cmax in CD1 mouse at 45 mg/m'2 of body surface, po administered as single dose; assay type: ADME, organism-based; parameters: route oral; conditions: in vivo
[7] = Half life in CD1 mouse at 45 mg/m'2 of body surface, po administered as single dose; assay type: ADME, organism-based; conditions: in vivo
[8] = AUC (0 to infinity) in CD1 mouse at 45 mg/m'2 of body surface, po administered as single dose; assay type: ADME, organism-based; parameters: time infinity, route oral; conditions: plasma
[9] = tested on: MDA-MB-231; test: Ratio of compound IC50 to 2ME2 IC50 for human MDA-MB-231 cells; assay type: functional
[10] = tested on: HUVEC; test: Ratio of compound IC50 to 2ME2 IC50 for antiangiogenic activity against HUVEC; assay type: functional, Homo sapiens
[11] = tested on: Mus musculus; test: Ratio of compound Cmax to 2ME2 Cmax in CD1 mouse at 45 mg/m'2 of body surface, po administered as single dose; assay type: ADME, organism-based; conditions: in vivo
[12] = tested on: Mus musculus; test: Ratio of compound AUC (0 to infinity) to 2ME2 AUC (0 to infinity) in CD1 mouse at 45 mg/m'2 of body surface, po administered as single dose; assay type: ADME, organism-based; conditions: in vivo

Row | Compound | IC50 [1] [µM] | IC50 [2] [µM] | Ratio IC50 [3] | Ratio IC50 [4] | Activity [5] | Cmax [6] [nM] | half-life [7] [h] | AUC(0-inf) [8] [µM·h] | Ratio IC50 [9] | Ratio IC50 [10] | Ratio [11] | Ratio [12]
1 | C=C1CC[C@H]2[C@@H]3CCc4cc(NC=O)c(OC)cc4[C@H]3CC[C@]12C | 0.3 | 0.22 | 2 | 3 | Active |  |  |  |  |  |  | 
2 | C=Cc1cc2c(cc1OC)[C@H]1CC[C@]3(C)CCC[C@H]3[C@@H]1CC2 | 1.86 | 0.58 |  |  | Active |  |  |  |  |  |  | 
3 | COc1cc2c(cc1O)CC[C@@H]1[C@@H]2CC[C@]2(C)[C@@H](O)CC[C@@H]12 [2-METHOXYESTRADIOL] | 0.79 | 0.68 |  |  | Active | 294 | 0.3 | 0.142 |  |  |  | 
4 | COc1cc2c(cc1N)CC[C@@H]1[C@@H]2CC[C@]2(C)C(=O)CC[C@@H]12 | 46.9 | 23.4 |  |  | Active |  |  |  |  |  |  | 
5 | COc1cc2c(cc1NC=O)CC[C@@H]1[C@@H]2CC[C@]2(C)[C@@H](C)CC[C@@H]12 | 0.61 | 0.59 | 2 | 3 | Active |  |  |  |  |  |  | 
6 | COc1cc2c(cc1C(N)=O)CC[C@@H]1[C@@H]2CC[C@]2(C)C=CC[C@@H]12 | 0.2 | 0.13 | 6 | 5 | Active | 1430 | 2.1 | 3.36 |  |  | 5 | 23
7 | C=C1CC[C@H]2[C@@H]3CCc4cc(N)c(OC)cc4[C@H]3CC[C@]12C | 2.11 | 1 |  |  | Active |  |  |  |  |  |  | 
8 | C=C1CC[C@H]2[C@@H]3CCc4cc(C(N)=O)c(OC)cc4[C@H]3CC[C@]12C | 0.12 | 0.25 | 6 | 5 | Active | 334 | 4.8 | 3.2 |  |  |  | 
9 | COc1cc2c(cc1N)CC[C@@H]1[C@@H]2CC[C@]2(C)CCC[C@@H]12 | 7.38 | 4.72 |  |  | Active |  |  |  |  |  |  | 
10 | COc1cc2c(cc1C(N)=O)CC[C@@H]1[C@@H]2CC[C@]2(C)C(=O)CC[C@@H]12 | 2.2 | 5.46 |  |  | Active |  |  |  |  | 8 |  | 
11 | COc1cc2c(cc1N)CC[C@@H]1[C@@H]2CC[C@]2(C)[C@@H](C)CC[C@@H]12 | 7.31 | 2.65 |  |  | Active |  |  |  |  |  |  | 

Second part, led by results:

Row | IC50 [1] [µM] | Compound | IC50 [2] [µM] | Ratio IC50 [3] | Ratio IC50 [4] | Activity [5] | Cmax [6] [nM] | half-life [7] [h] | AUC(0-inf) [8] [µM·h] | Ratio IC50 [9] | Ratio IC50 [10] | Ratio [11] | Ratio [12]
12 | 9.25 | COc1cc2c(cc1NC(C)=O)CC[C@@H]1[C@@H]2CC[C@]2(C)CCC[C@@H]12 | 1.68 |  |  | Active |  |  |  |  |  |  | 
13 | 1.86 | COc1cc2c(cc1C(N)=O)CC[C@@H]1[C@@H]2CC[C@]2(C)CCC[C@@H]12 | 1.19 |  |  | Active | 504 | 1.1 | 2.53 | 3 | 8 |  | 
14 | 1.94 | C/C=C1\CC[C@H]2[C@@H]3CCc4cc(N)c(OC)cc4[C@H]3CC[C@]12C | 0.72 |  |  | Active |  |  |  |  |  |  | 
15 | 0.2 | COc1cc2c(cc1NC#N)CC[C@@H]1[C@@H]2CC[C@]2(C)C(=O)CC[C@@H]12 | 0.25 |  |  | Active |  |  |  |  |  |  | 
16 | 5.6 | COC(=O)Nc1cc2c(cc1OC)[C@H]1CC[C@]3(C)C(=O)CC[C@H]3[C@@H]1CC2 | 8.22 |  |  | Active |  |  |  |  |  |  | 
17 | 0.71 | COc1cc2c(cc1NC(N)=O)CC[C@@H]1[C@@H]2CC[C@]2(C)C(=O)CC[C@@H]12 | 0.61 |  |  | Active |  |  |  |  |  |  | 
18 | 25 | COC(=O)Oc1cc2c(cc1OC)[C@H]1CC[C@]3(C)C(=O)CC[C@H]3[C@@H]1CC2 | 32.9 |  |  | Active |  |  |  |  |  |  | 
19 | 1.22 | COc1cc2c(cc1NC=O)CC[C@@H]1[C@@H]2CC[C@]2(C)C(=O)CC[C@@H]12 | 0.53 |  | 3 | Active |  |  |  | 10 |  |  | 
20 | 0.56 | C/C=C1\CC[C@H]2[C@@H]3CCc4cc(NC=O)c(OC)cc4[C@H]3CC[C@]12C | 0.58 | 2 | 3 | Active |  |  |  |  |  |  | 
21 | 53 | CCNC(=O)c1cc2c(cc1OC)[C@H]1CC[C@]3(C)CCC[C@H]3[C@@H]1CC2 | 38 |  |  | Active |  |  |  |  |  |  | 
22 | 8.29 | COc1cc2c(cc1NC=O)CC[C@@H]1[C@@H]2CC[C@]2(C)CCC[C@@H]12 | 5.8 |  |  | Active |  |  |  | 10 | 8 |  | 
